Experimental data published in ChEMBL document CHEMBL3603789, “N-Lipidated Peptide Dimers: Effective Antibacterial Agents against Gram-Negative Pathogens through Lipopolysaccharide Permeabilization” (J Med Chem, 2015).
Converted amounts (≈) assume the structure as drawn. The source made the active and inactive calls. No cut-off for these calls is given here. Bridge positions count the residues as written; N and C are the ends. Peptide text beside a SMILES is read from it. I, II: the chains in the order shown. * marks the point of attachment. Decanoyl = CCCCCCCCCC(=O)*; Octanoyl = CCCCCCCC(=O)*; Butyryl = CCCC(=O)*

Legend:
[1] = Toxicity in New Zealand white rabbit erythrocytes assessed as hemolytic activity after 60 mins; format: cell-based, Oryctolagus cuniculus; details: erythrocyte, 1 h
Klebsiella pneumoniae = test: Antibacterial activity against Klebsiella pneumoniae DM4299 after 24 hrs by broth microdilution method; format: functional; details: DM4299, 24 h
Pseudomonas aeruginosa [2] = test: Antibacterial activity against Pseudomonas aeruginosa DM23155 after 24 hrs by broth microdilution method; format: functional; details: DM23155, 24 h
Escherichia coli [3] = test: Antibacterial activity against Escherichia coli ATCC 25922 after 24 hrs by broth microdilution method; format: functional; details: ATCC 25922, 24 h
Lipopolysaccharide (LPS) [4] = test: Displacement of dansylcadaverine from Escherichia coli 0111:B4 LPS at 15 to 30 uM after 5 mins by high-throughput fluorescence displacement assay
Lipopolysaccharide (LPS) [5] = test: Induction of Escherichia coli 0111:B4 LPS neutralization using p-nitroaniline assessed as concentration required to neutralize 50% after 1 hr by limulus amebocyte lysate assay
Lipopolysaccharide (LPS) [6] = test: Induction of Pseudomonas aeruginosa serotype 10 LPS neutralization using p-nitroaniline assessed as concentration required to neutralize 50% after 1 hr by limulus amebocyte lysate assay
Pseudomonas aeruginosa [7] = test: Induction of 1-N-phenylnaphthylamine uptake in Pseudomonas aeruginosa DM23155 at 400 uM after 1 hr by fluorescence assay relative to polymyxin B; format: functional
Pseudomonas aeruginosa [8] = test: Antibacterial activity against Pseudomonas aeruginosa DR18531 after 24 hrs by broth microdilution method; format: functional; details: DR18531, 24 h
Pseudomonas aeruginosa [9] = test: Antibacterial activity against Pseudomonas aeruginosa DM4150R after 24 hrs by broth microdilution method; format: functional
Pseudomonas aeruginosa [10] = test: Antibacterial activity against Pseudomonas aeruginosa DM23257 after 24 hrs by broth microdilution method; format: functional; details: DM23257, 24 h
Pseudomonas aeruginosa [11] = test: Antibacterial activity against Pseudomonas aeruginosa DM23376 after 24 hrs by broth microdilution method; format: functional; details: DM23376, 24 h
Pseudomonas aeruginosa [12] = test: Antibacterial activity against Pseudomonas aeruginosa DU14476 after 24 hrs by broth microdilution method; format: functional; details: DU14476, 24 h
Pseudomonas aeruginosa [13] = test: Antibacterial activity against Pseudomonas aeruginosa DR5790 after 24 hrs by broth microdilution method; format: functional; details: DR5790, 24 h
Pseudomonas aeruginosa [14] = test: Antibacterial activity against Pseudomonas aeruginosa DR4877 after 24 hrs by broth microdilution method; format: functional; details: DR4877, 24 h
Pseudomonas aeruginosa [15] = test: Antibacterial activity against Pseudomonas aeruginosa ATCC 9027 after 24 hrs by broth microdilution method; format: functional; details: ATCC 9027, 24 h
Pseudomonas aeruginosa [16] = test: Antibacterial activity against Pseudomonas aeruginosa ATCC 27853 after 24 hrs by broth microdilution method; format: functional; details: ATCC 27853, 24 h
Pseudomonas aeruginosa [17] = test: Induction of cytoplasmic membrane depolarization in Pseudomonas aeruginosa DM23155 at 4 times MIC after 1 hr by fluorescence assay; format: functional, organism-based
Pseudomonas aeruginosa [18] = test: Induction of cytoplasmic membrane disruption in Pseudomonas aeruginosa DM23155 assessed as membrane integrity at 1 to 2 times MIC after 1 hr by fluorescence assay; format: functional
Pseudomonas aeruginosa [19] = test: Induction of cytoplasmic membrane disruption in Pseudomonas aeruginosa DM23155 assessed as membrane integrity at 2 times MIC after 1 hr by fluorescence assay; format: functional
[20] = Induction of calcein leakage from DOPE/DOPG artificial membrane at 1:32 ratio of compound to lipid by fluorescence assay; format: physicochemical
[21] = Induction of calcein leakage from DOPC artificial membrane at 1:32 ratio of compound to lipid by fluorescence assay; format: physicochemical
Pseudomonas aeruginosa [22] = test: Antibacterial activity against Pseudomonas aeruginosa DM23155 assessed as log reduction of viable count at 2 times MIC after 5 hrs by time-kill assay relative to control; format: functional
Pseudomonas aeruginosa [23] = test: Antibacterial activity against Pseudomonas aeruginosa DM23155 assessed as log reduction of viable count at 2 times MIC after 24 hrs by time-kill assay; format: functional, organism-based
Pseudomonas aeruginosa [24] = test: Antibacterial activity against Pseudomonas aeruginosa DM23155 assessed as log reduction of viable count at 1 time MIC after 24 hrs by time-kill assay; format: functional, organism-based
Pseudomonas aeruginosa [25] = test: Antibacterial activity against Pseudomonas aeruginosa DM23155 assessed as log reduction of viable count at 1 time MIC after 5 hrs by time-kill assay relative to control; format: functional
Pseudomonas aeruginosa [26] = test: Antibacterial activity against Pseudomonas aeruginosa DM23155 assessed as log reduction of viable count at 2 times MIC after 30 mins by time-kill assay relative to control; format: functional
Pseudomonas aeruginosa [27] = test: Antibacterial activity against Pseudomonas aeruginosa DM23155 assessed as log reduction of viable count MIC up to 24 hrs by time-kill assay; format: functional, organism-based
Pseudomonas aeruginosa [28] = test: Antibacterial activity against Pseudomonas aeruginosa DM23155 assessed as log reduction of viable count at 1 to 2 times MIC by time-kill assay relative to control; format: functional, organism-based
Pseudomonas aeruginosa [29] = test: Antibacterial activity against Pseudomonas aeruginosa DM23155 assessed as log reduction of viable count at 1 to 2 times MIC after 24 hrs by time-kill assay; format: functional, organism-based
Pseudomonas aeruginosa [30] = test: Antibacterial activity against Pseudomonas aeruginosa DM23155 after 24 hrs by checkerboard assay in presence of nalidixic acid; format: functional
Pseudomonas aeruginosa [31] = test: Antibacterial activity against Pseudomonas aeruginosa DM23155 after 24 hrs by checkerboard assay in presence of gentamicin; format: functional
Pseudomonas aeruginosa [32] = test: Antibacterial activity against Pseudomonas aeruginosa DM23155 after 24 hrs by checkerboard assay in presence of erythromycin; format: functional
Pseudomonas aeruginosa [33] = test: Antibacterial activity against Pseudomonas aeruginosa DM23155 after 24 hrs by checkerboard assay in presence of streptomycin; format: functional
Pseudomonas aeruginosa [34] = test: Antibacterial activity against Pseudomonas aeruginosa DM23155 after 24 hrs by checkerboard assay in presence of kanamycin; format: functional
Escherichia coli [35] = test: Antibacterial activity against Escherichia coli ATCC 25922 after 24 hrs by checkerboard assay in presence of nalidixic acid; format: functional
Escherichia coli [36] = test: Antibacterial activity against Escherichia coli ATCC 25922 after 24 hrs by checkerboard assay in presence of gentamicin; format: functional
Escherichia coli [37] = test: Antibacterial activity against Escherichia coli ATCC 25922 after 24 hrs by checkerboard assay in presence of erythromycin; format: functional
Escherichia coli [38] = test: Antibacterial activity against Escherichia coli ATCC 25922 after 24 hrs by checkerboard assay in presence of streptomycin; format: functional
Escherichia coli [39] = test: Antibacterial activity against Escherichia coli ATCC 25922 after 24 hrs by checkerboard assay in presence of kanamycin; format: functional

MIC (Klebsiella pneumoniae) | MIC (Pseudomonas aeruginosa [2]) | MIC (Escherichia coli [3]) | Activity (Lipopolysaccharide (LPS) [4]) | EC50 (Lipopolysaccharide (LPS) [5]) | MIC (Pseudomonas aeruginosa [8]) | MIC (Pseudomonas aeruginosa [9]) | MIC (Pseudomonas aeruginosa [10]) | MIC (Pseudomonas aeruginosa [11]) | MIC (Pseudomonas aeruginosa [12]) | MIC (Pseudomonas aeruginosa [13]) | MIC (Pseudomonas aeruginosa [14]) | MIC (Pseudomonas aeruginosa [15]) | MIC (Pseudomonas aeruginosa [16]) | Activity [21] | Structure (SMILES) | HC10 [1] | Activity (Pseudomonas aeruginosa [7]) | Activity (Pseudomonas aeruginosa [17]) | other results
6 µM (≈ 13.6 µg/mL) | 6 µM (≈ 13.6 µg/mL) | 3 µM (≈ 6.79 µg/mL) | 72.4% | 769 µM |  |  |  |  |  |  |  |  |  |  | CCCC(=O)N[C@@H](CCCNC(=N)N)C(=O)NCC(=O)N[C@@H](CCCNC(=N)N)C(=O)N[C@@H](CCCCN)C(=O)NCC(=O)NCC(=O)N[C@@H](CCCNC(=N)N)C(=O)N[C@@H](CCCNC(=N)N)C(=O)NCCCC[C@H](NC(=O)[C@H](CCCNC(=N)N)NC(=O)[C@H](CCCNC(=N)N)NC(=O)CNC(=O)CNC(=O)[C@H](CCCCN)NC(=O)[C@H](CCCNC(=N)N)NC(=O)CNC(=O)[C@H](CCCNC(=N)N)NC(=O)CCC)C(=O)N[C@@H](CCCCN)C(=O)O (I: Butyryl-RGRKGGRRKK-OH / II: Butyryl-RGRKGGRR; amide I:9-II:C) | > 10000 µg/mL | 2.5% |  | EC50 (Lipopolysaccharide (LPS) [6]): 345 µM
3 µM (≈ 7.8 µg/mL) | 3 µM (≈ 7.8 µg/mL) | 6 µM (≈ 15.6 µg/mL) | 131% | 38.1 µM | 1.5 µM (≈ 3.9 µg/mL) | 1.5 µM (≈ 3.9 µg/mL) | 3 µM (≈ 7.8 µg/mL) | 3 µM (≈ 7.8 µg/mL) | 3 µM (≈ 7.8 µg/mL) | 3 µM (≈ 7.8 µg/mL) | 6 µM (≈ 15.6 µg/mL) | 3 µM (≈ 7.8 µg/mL) | 3 µM (≈ 7.8 µg/mL) | Active | CCCCCCCCCC(=O)N[C@@H](CCCNC(=N)N)C(=O)NCC(=O)N[C@@H](CCCNC(=N)N)C(=O)N[C@@H](CCCCN)C(=O)N[C@H](C(=O)N[C@H](C(=O)N[C@@H](CCCNC(=N)N)C(=O)N[C@@H](CCCNC(=N)N)C(=O)NCCCC[C@H](NC(=O)[C@H](CCCNC(=N)N)NC(=O)[C@H](CCCNC(=N)N)NC(=O)[C@@H](NC(=O)[C@@H](NC(=O)[C@H](CCCCN)NC(=O)[C@H](CCCNC(=N)N)NC(=O)CNC(=O)[C@H](CCCNC(=N)N)NC(=O)CCCCCCCCC)C(C)C)C(C)C)C(=O)N[C@@H](CCCCN)C(=O)O)C(C)C)C(C)C (I: Decanoyl-RGRKVVRRKK-OH / II: Decanoyl-RGRKVVRR; amide I:9-II:C) | > 10000 µg/mL |  | Active | Activity (Pseudomonas aeruginosa [18]): >80%; Activity (Pseudomonas aeruginosa [19]): 51.1%; Activity [20]: Active
3 µM (≈ 6.37 µg/mL) | 6 µM (≈ 12.7 µg/mL) | 6 µM (≈ 12.7 µg/mL) | 84.8% | > 1000 µM | 3 µM (≈ 6.37 µg/mL) | 6 µM (≈ 12.7 µg/mL) | 10 µM (≈ 21.2 µg/mL) | 6 µM (≈ 12.7 µg/mL) | 6 µM (≈ 12.7 µg/mL) | 6 µM (≈ 12.7 µg/mL) | 6 µM (≈ 12.7 µg/mL) | 6 µM (≈ 12.7 µg/mL) | 6 µM (≈ 12.7 µg/mL) |  | N=C(N)NCCC[C@H](NC(=O)CNC(=O)CNC(=O)[C@H](CCCCN)NC(=O)[C@H](CCCNC(=N)N)NC(=O)CNC(=O)[C@@H](N)CCCNC(=N)N)C(=O)N[C@@H](CCCNC(=N)N)C(=O)NCCCC[C@H](NC(=O)[C@H](CCCNC(=N)N)NC(=O)[C@H](CCCNC(=N)N)NC(=O)CNC(=O)CNC(=O)[C@H](CCCCN)NC(=O)[C@H](CCCNC(=N)N)NC(=O)CNC(=O)[C@@H](N)CCCNC(=N)N)C(=O)N[C@@H](CCCCN)C(=O)O (I: H-RGRKGGRRKK-OH / II: H-RGRKGGRR; amide I:9-II:C) | > 10000 µg/mL | 1.9% |  | FC (Pseudomonas aeruginosa [22]): 10; Activity (Pseudomonas aeruginosa [23]): Active; Activity (Pseudomonas aeruginosa [24]): inactive; FC (Pseudomonas aeruginosa [25]): 2.7
3 µM (≈ 7.12 µg/mL) | 3 µM (≈ 7.12 µg/mL) | 3 µM (≈ 7.12 µg/mL) | 112% | 117 µM | 3 µM (≈ 7.12 µg/mL) | 3 µM (≈ 7.12 µg/mL) | 6 µM (≈ 14.2 µg/mL) | 3 µM (≈ 7.12 µg/mL) | 3 µM (≈ 7.12 µg/mL) | 3 µM (≈ 7.12 µg/mL) | 3 µM (≈ 7.12 µg/mL) | 3 µM (≈ 7.12 µg/mL) | 3 µM (≈ 7.12 µg/mL) | Active | CCCCCCCC(=O)N[C@@H](CCCNC(=N)N)C(=O)NCC(=O)N[C@@H](CCCNC(=N)N)C(=O)N[C@@H](CCCCN)C(=O)NCC(=O)NCC(=O)N[C@@H](CCCNC(=N)N)C(=O)N[C@@H](CCCNC(=N)N)C(=O)NCCCC[C@H](NC(=O)[C@H](CCCNC(=N)N)NC(=O)[C@H](CCCNC(=N)N)NC(=O)CNC(=O)CNC(=O)[C@H](CCCCN)NC(=O)[C@H](CCCNC(=N)N)NC(=O)CNC(=O)[C@H](CCCNC(=N)N)NC(=O)CCCCCCC)C(=O)N[C@@H](CCCCN)C(=O)O (I: Octanoyl-RGRKGGRRKK-OH / II: Octanoyl-RGRKGGRR; amide I:9-II:C) | > 10000 µg/mL | 20% | Active | FC (Pseudomonas aeruginosa [26]): 3; Activity (Pseudomonas aeruginosa [27]): Dose-dependent effect; Activity (Pseudomonas aeruginosa [28]): Active; Activity (Pseudomonas aeruginosa [29]): Active; fractional inhibitory concentration index (FICI) (Pseudomonas aeruginosa [30]): 0.56; fractional inhibitory concentration index (FICI) (Pseudomonas aeruginosa [31]): 0.38; fractional inhibitory concentration index (FICI) (Pseudomonas aeruginosa [32]): 0.38; fractional inhibitory concentration index (FICI) (Pseudomonas aeruginosa [33]): 0.56; fractional inhibitory concentration index (FICI) (Pseudomonas aeruginosa [34]): 0.56; fractional inhibitory concentration index (FICI) (Escherichia coli [35]): 0.56; fractional inhibitory concentration index (FICI) (Escherichia coli [36]): 0.38; fractional inhibitory concentration index (FICI) (Escherichia coli [37]): 1; fractional inhibitory concentration index (FICI) (Escherichia coli [38]): 0.5; fractional inhibitory concentration index (FICI) (Escherichia coli [39]): 0.56
